From US10301298B2, “Methods, compounds, and compositions for the treatment of angiotensin-related diseases” (University of Southern California, priority 2013, dated 2019)
Entries after “also recorded” stand apart in the source; their conditions may differ.

Tests used:
Mas [1] = biological target: T1, Mas (Homo sapiens, UniProt P04201); assay: Competition binding assay, displacement of fluorescent Ang(1-7) from Mas-transfected CHO cells; design: concentration or dose not given beside the values; settings: CHO cells transfected with Human mas1, on ice
T1 construct: expressed in transfected cells
T1 sequence (P04201 1-325): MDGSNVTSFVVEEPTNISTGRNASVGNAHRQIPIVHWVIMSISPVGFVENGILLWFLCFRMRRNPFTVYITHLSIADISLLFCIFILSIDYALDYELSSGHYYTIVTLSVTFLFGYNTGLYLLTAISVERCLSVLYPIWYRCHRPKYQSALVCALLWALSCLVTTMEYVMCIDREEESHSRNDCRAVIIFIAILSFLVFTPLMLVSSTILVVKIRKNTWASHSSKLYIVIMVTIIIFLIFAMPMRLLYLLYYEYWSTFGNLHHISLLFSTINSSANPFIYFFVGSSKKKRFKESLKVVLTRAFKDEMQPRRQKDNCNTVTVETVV
Experimental: CHO cells stably transfected with recombinant Human mas1 proto-oncogen driven by the human cytomegalovirus were grown to 80% confluency. The cells were detached with trypsin and harvested by centrifugation. Cells were washed three times in progressively colder buffers. The final number of cells per assay was 5×10^5. All subsequent steps were performed on ice. Test compound was added to the cells for 10 minutes prior to addition of fluorescently labeled A(1-7). After 10 minutes further incubation, the cells were washed to remove unbound A(1-7) and the fluorescence bound was read at an excitation of 490 nm and an emission of 520 nm.

db/db mice = assay: Bone marrow cell counts and progenitor colonies in db/db mice; format: in vivo; settings: 500 mcg/kg/day subcutaneously, 14 days
Experimental: The femurs and tibia were collected from db/db mice treated 500 mcg/kg/day Ang(1-7) or Compound 7 subcutaneously for 14 days were euphanized and the bone marrow were collected by flushing with PBS containing 2% fetal calf serum. After collection of the bone marrow, the red blood cells will be lysed with a hypotonic solution (described above), mixed with 0.04% trypan blue and the number of nucleated cells was assessed by hematocytometer under light microscopy. Aliquots of cells were then resuspended at 1×10^6 cells/ml (GM and GEMM, bone marrow), 1.5×10^6 cells/ml (BFU-E, bone marrow). One hundred μ1 of each suspension was added to 900 μl of semisolid medium containing 0.9% methyl cellulose in Iscove's MDM, 15% fetal calf serum, 1% bovine serum albumin, 10 μg/ml bovine pancreatic insulin, 200 μg/ml human transferrin, 10^−4 M 2-mercaptoethanol, 2 mM glutamine, 10 ng/ml recombinant murine interleukin 3, 10 ng/ml recombinant human interleukin 6, 50 ng/ml recombinant murine stem cell factor and 3 units/ml erthropoietin. This mixture was then added to duplicate wells of a 24 well plate. The cultures were then placed at 37° C. in a humidified atmosphere of 5% CO2 in air. At day 14, the number of progenitor colonies formed was enumerated under phase contrast microscopy.
The bone marrow cells were also cultured to assess the number of MSCs by a CFU—F assay. 2.5×10^5 cells/ml, 2 ml per well, were diluted into Mesencult medium (Stem Cell Technologies, Vancouver, BC, Canada) and 2 mL were placed in each well of a 24 well plate. The cultures were then incubated at 37° C. in a humidified atmosphere of 5% CO2 in air. At days 2, 5 and 8, the number of progenitor colonies formed was enumerated under phase contrast microscopy.

Mas [2] = biological target: T1, Mas; assay: NO production in CHO cells stably transfected with Human Mas1; format: cell-based
Experimental: Transfected cells that express Mas were used to identify and evaluate provided compounds as Mas agonists, by promoting NO production as readouts. CHO cells stably transfected with pTEJ-8 vector containing recombinant Human Mas1 clone were grown to confluency. Cells were washed three times for 30/5/5 minutes with prewarmed (37° C.) Tyrodes Salts (supplemented with 1 g/L NaHCO3, and 1.9 g/L d-Glucose). Cells were incubated for a short time in 700 μL of supplemented Tyrodes salts containing 10 μM PTIO, 100 μM DAN, and 1 mM L-arginine. When using antagonist for competition assays, cells were exposed to the inhibitor at 1×10^−7 M for 15 minutes, before additional drugs are added.
Chemicals (10^−8 to 10^−6 M or the maximum concentration found not to cause cytotoxicity) to be screened were added to the cell medium and the plates were agitated for 1 minute before being placed into the incubator for 2 hours. After 2 hours, cellular supernatants were transferred to opaque 96 well plates, and the fluorescence intensity was recorded at an ex/em of 380/425.

CCCCOC(=O)NS(=O)(=O)c1ccc(OC(F)(F)F)cc1-c1ccc(CN2CCN(C)C2=O)cn1 [Compound 8, butyl (2-(5-((3-methyl-2-oxoimidazolidin-1-yl)methyl)pyridin-2-yl)-4-(trifluoromethoxy)phenyl) sulfonylcarbamate]
% Displacement (Mas [1]): 18.6%

CCCCOC(=O)NS(=O)(=O)c1ccc(OC(F)(F)F)cc1-c1ccc(CN2CCOCC2)cn1 [Compound 9, butyl (2-(5-(morpholinomethyl)pyridin-2-yl)-4-(trifluoromethoxy)phenyl)sulfonyl-carbamate]
% Displacement (Mas [1]): 17.3%

CCCCOC(=O)NS(=O)(=O)c1ccc(OC(F)(F)F)cc1-c1ccc(CN2CCN(C)CC2)cn1 [Compound 10, butyl (2-(5-((4-methylpiperazin-1-yl)methyl)pyridin-2-yl)-4-(trifluoromethoxy)phenyl)sulfonylcarbamate]
% Displacement (Mas [1]): 22.0%

CCCCOC(=O)NS(=O)(=O)c1ccc(OC(F)(F)F)cc1-c1ncc(Cn2ccnc2)s1 [Compound 11, butyl (2-(5-((1H-imidazol-1-yl)methyl)thiazol-2-yl)-4-(trifluoromethoxy)phenyl)sulfonylcarbamate]
% Displacement (Mas [1]): 23.0%

Asp-Arg-Val-Tyr-Ile-His-Pro [Ang(1-7), reference compound]
bone marrow counts (db/db mice): increase bone marrow counts; also recorded: increased the bone marrow counts
ability to enhance NO production (fluorescence) (Mas [2]; Mas-transfected CHO cells): concentration dependent increase in NO
NO production with co-administration of A779 (Mas [2]; with A779, selective Mas antagonist, 1×10^−7 M): back to baseline fluorescence
